The values that follow come from PubChem BioAssay AID330 (DTP/NCI, 2004).

The assay has as its system P388 leukemia ip, CD2F1 mice, survival T/C. In words: NCI In Vivo Anticancer Drug Screen. Data for tumor model P388 Leukemia (intraperitoneal) in CD2F1 (CDF1) mice. Conditions: endpoint: median survival time, higher = longer survival. The procedure, abridged: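 Mice carrying the transplanted tumor received test compound or vehicle. Survival was recorded in each group, and the value is the treated-group measurement divided by that of the vehicle-treated control group.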

The mark [1] stands for this setting: dose: 50.0 mg/kg/injection, schedule: Q01DX005 (ip), vehicle: Klucel (hydroxypropylcellulose) (HPC).
[2] abbreviates: dose: 100.0 mg/kg/injection, schedule: Q01DX005 (ip), vehicle: Klucel (hydroxypropylcellulose) (HPC).
Where [3] appears, read: dose: 200.0 mg/kg/injection, schedule: Q01DX005 (ip), vehicle: Klucel (hydroxypropylcellulose) (HPC).

Structures are written as SMILES. Several values for one entry are separate records, joined by “and”; a condition that tells them apart may be missing. Equal values may be shown once. Toxic doses and inconclusive results are not listed.

Take `NC(=O)c1cn(C2OC(CO)C(O)C2O)c2ncnc(N)c12` (stereo not drawn): the T/C runs as follows: (dose: 0.06 mg/kg/injection, schedule: Q03HX024 (ip), vehicle: saline) 105 % of control; (dose: 0.13 mg/kg/injection, schedule: Q01DX009 (ip), vehicle: saline) 100 % of control; (dose: 0.13 mg/kg/injection, schedule: Q03HX008 (ip), vehicle: saline) 111 % of control; (dose: 0.13 mg/kg/injection, schedule: Q03HX016 (ip), vehicle: saline) 122 % of control; (dose: 0.13 mg/kg/injection, schedule: Q03HX024 (ip), vehicle: saline) 111 % of control; (dose: 0.25 mg/kg/injection, schedule: Q01DX009 (ip), vehicle: saline) 111 % of control. Besides, the T/C is, setting by setting: (dose: 0.25 mg/kg/injection, schedule: Q03HX008 (ip), vehicle: saline) 111 % of control; (dose: 0.25 mg/kg/injection, schedule: Q03HX016 (ip), vehicle: saline) 111 % of control; (dose: 0.25 mg/kg/injection, schedule: Q03HX024 (ip), vehicle: saline) 111 % of control; (dose: 0.5 mg/kg/injection, schedule: Q01DX005 (ip), vehicle: saline with Tween-80) 151 % of control; (dose: 0.5 mg/kg/injection, schedule: Q01DX009 (ip), vehicle: saline) 105 % of control; (dose: 0.5 mg/kg/injection, schedule: Q01DX009 (ip), vehicle: suspension in saline) 154 % of control. Further, the T/C (dose: 0.5 mg/kg/injection, schedule: Q03HX008 (ip), vehicle: saline) was 111 % of control; the T/C (dose: 0.5 mg/kg/injection, schedule: Q03HX016 (ip), vehicle: saline) was 116 % of control; the T/C (dose: 0.5 mg/kg/injection, schedule: Q03HX024 (ip), vehicle: saline) is 111 % of control; the T/C (dose: 0.5 mg/kg/injection, schedule: Q04DX003 (ip), vehicle: saline) is 105 % of control; the T/C (dose: 1.0 mg/kg/injection, schedule: Q01DX001 (ip), vehicle: saline) was 111 % of control; the T/C (dose: 1.0 mg/kg/injection, schedule: Q01DX005 (ip), vehicle: saline with Tween-80) was 161 % of control. Also, the T/C is 111 % of control (dose: 1.0 mg/kg/injection, schedule: Q01DX009 (ip), vehicle: saline); 154 % of control (dose: 1.0 mg/kg/injection, schedule: Q01DX009 (ip), vehicle: suspension in saline); 94 % of control (dose: 1.0 mg/kg/injection, schedule: Q03HX008 (ip), vehicle: saline); 122 % of control (dose: 1.0 mg/kg/injection, schedule: Q03HX016 (ip), vehicle: saline); 116 % of control (dose: 1.0 mg/kg/injection, schedule: Q04DX003 (ip), vehicle: saline); 111 % of control (dose: 1.0 mg/kg/injection, schedule: Q08DX002 (ip), vehicle: saline). Also, the T/C is 111 % of control (dose: 2.0 mg/kg/injection, schedule: Q01DX001 (ip), vehicle: saline); 169 % of control (dose: 2.0 mg/kg/injection, schedule: Q01DX005 (ip), vehicle: saline with Tween-80); 100 % of control (dose: 2.0 mg/kg/injection, schedule: Q01DX009 (ip), vehicle: saline); 94 % of control (dose: 2.0 mg/kg/injection, schedule: Q01DX009 (ip), vehicle: suspension in saline); 111 % of control (dose: 2.0 mg/kg/injection, schedule: Q04DX003 (ip), vehicle: saline); 111 % of control (dose: 2.0 mg/kg/injection, schedule: Q08DX002 (ip), vehicle: saline). Further, the T/C (dose: 4.0 mg/kg/injection, schedule: Q01DX001 (ip), vehicle: saline) was 122 % of control; the T/C (dose: 4.0 mg/kg/injection, schedule: Q04DX003 (ip), vehicle: saline) is 122 % of control and 118 % of control; the T/C (dose: 4.0 mg/kg/injection, schedule: Q08DX002 (ip), vehicle: saline) is 116 % of control; the T/C (dose: 8.0 mg/kg/injection, schedule: Q01DX001 (ip), vehicle: saline) was 111 % of control; the T/C (dose: 8.0 mg/kg/injection, schedule: Q08DX002 (ip), vehicle: saline) is 116 % of control.
Take `CN1NC(c2ccccc2)=C(C#N)C(=O)CC1c1cccs1` (stereo not drawn): the T/C is 95 % of control (dose: 60.0 mg/kg/injection, schedule: Q01DX005 (ip), vehicle: saline with Tween-80); 88 % of control (dose: 120.0 mg/kg/injection, schedule: Q01DX005 (ip), vehicle: saline with Tween-80); 96 % of control (dose: 240.0 mg/kg/injection, schedule: Q01DX005 (ip), vehicle: saline with Tween-80).
Regarding `CC(=O)OC1CC2C3(C)CCC4C(C)(C)CCCC4(C)C3CC(O)C2(C)C2C1=COC2OC(C)=O` (stereo not drawn), the T/C is 102 % of control (dose: 15.0 mg/kg/injection, schedule: Q01DX005 (ip), vehicle: Klucel (hydroxypropylcellulose) (HPC)) and 120 % of control (dose: 30.0 mg/kg/injection, schedule: Q01DX005 (ip), vehicle: Klucel (hydroxypropylcellulose) (HPC)).
With `Nc1c(C(=O)O)c(Br)cc2c1C(=O)c1ccccc1C2=O`, the T/C under setting [1] is 99 % of control, the T/C under setting [2] is 99 % of control and the T/C under setting [3] is 107 % of control.
With `C=C1C(=O)OC2C1C(OC(=O)/C(C)=C/C)CC1(C)C(=O)CCC(=C)C21` (stereo not drawn), the T/C (dose: 12.5 mg/kg/injection, schedule: Q01DX005 (ip), vehicle: Klucel (hydroxypropylcellulose) (HPC)) was 110 % of control; the T/C (dose: 25.0 mg/kg/injection, schedule: Q01DX005 (ip), vehicle: Klucel (hydroxypropylcellulose) (HPC)) was 104 % of control and 106 % of control and 107 % of control; the T/C under setting [1] was 106 % of control and 109 % of control and 112 % of control; the T/C under setting [2] is 109 % of control; the T/C (dose: 150.0 mg/kg/injection, schedule: Q01DX005 (ip), vehicle: Klucel (hydroxypropylcellulose) (HPC)) is 107 % of control; the T/C under setting [3] was 108 % of control and 111 % of control.
For `C1CCC([Se][Se]C2CCCC2)C1`, the T/C was 104 % of control (dose: 12.5 mg/kg/injection, schedule: Q01DX009 (ip), vehicle: Klucel (hydroxypropylcellulose) (HPC)); 110 % of control (dose: 25.0 mg/kg/injection, schedule: Q01DX009 (ip), vehicle: Klucel (hydroxypropylcellulose) (HPC)); 99 % of control and 101 % of control (dose: 50.0 mg/kg/injection, schedule: Q01DX009 (ip), vehicle: Klucel (hydroxypropylcellulose) (HPC)).
In the case of `NC1CNC(=O)NC1=O` (stereo not drawn), the T/C was 101 % of control (dose: 50.0 mg/kg/injection, schedule: Q01DX005 (ip), vehicle: saline); 100 % of control (dose: 100.0 mg/kg/injection, schedule: Q01DX005 (ip), vehicle: saline); 101 % of control (dose: 200.0 mg/kg/injection, schedule: Q01DX005 (ip), vehicle: saline).
As for `COc1c(CC(O)C(C)(C)O)c(=O)n(C)c2ccccc12` (stereo not drawn), the T/C by setting is: (dose: 4.5 mg/kg/injection, schedule: Q01DX005 (ip), vehicle: Klucel (hydroxypropylcellulose) (HPC)) 102 % of control; (dose: 9.0 mg/kg/injection, schedule: Q01DX005 (ip), vehicle: Klucel (hydroxypropylcellulose) (HPC)) 98 % of control; (dose: 18.0 mg/kg/injection, schedule: Q01DX005 (ip), vehicle: Klucel (hydroxypropylcellulose) (HPC)) 90 % of control; (dose: 36.0 mg/kg/injection, schedule: Q01DX005 (ip), vehicle: Klucel (hydroxypropylcellulose) (HPC)) 93 % of control.
With `O=C(Cc1c[nH]c2ccccc12)Nc1nncs1`, the T/C (dose: 100.0 mg/kg/injection, schedule: Q04DX002 (ip), vehicle: saline with Tween-80) was 97 % of control; the T/C (dose: 200.0 mg/kg/injection, schedule: Q04DX002 (ip), vehicle: saline with Tween-80) was 97 % of control; the T/C (dose: 400.0 mg/kg/injection, schedule: Q04DX002 (ip), vehicle: saline with Tween-80) was 110 % of control.
On to `O=C(N/N=C/c1cc(Cl)cc(Cl)c1[O-])c1ccccc1.O=C(N/N=C/c1cc(Cl)cc(Cl)c1[O-])c1ccccc1.[Ni+2]`, for which the T/C runs as follows: (dose: 100.0 mg/kg/injection, schedule: Q01DX001 (ip), vehicle: saline with Tween-80) 93 % of control; (dose: 200.0 mg/kg/injection, schedule: Q01DX001 (ip), vehicle: saline with Tween-80) 92 % of control; (dose: 400.0 mg/kg/injection, schedule: Q01DX001 (ip), vehicle: saline with Tween-80) 107 % of control.
Turning to `CC(C)[C@]12O[C@H]1[C@@H]1O[C@]13[C@]1(O[C@H]1C[C@H]1C4=C(CC[C@@]13C)C(=O)OC4)[C@@H]2O`, the T/C was 95 % of control (dose: 62.5 micrograms/kg/injection, schedule: Q01DX009 (ip), vehicle: saline with Tween-80); 95 % of control (dose: 125.0 micrograms/kg/injection, schedule: Q01DX009 (ip), vehicle: saline with Tween-80); 112 % of control (dose: 250.0 micrograms/kg/injection, schedule: Q01DX009 (ip), vehicle: saline with Tween-80).
